Here are results for 12 compounds from ChEMBL document CHEMBL1201862, “PubChem BioAssay data set” (2004).

Test systems include 786-0; EKVX; HCT-15; HOP-62; HOP-92; M14; NCI-H460; NCI/ADR-RES; OVCAR-4; SF-268; SF-539; SK-MEL-28; SK-OV-3; T47D; TK-10; IGROV-1; NCI-H226; RXF 393; SK-MEL-2.
What all share (experiment): NCI anticancer screen, dose series, 48 h

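Where inhibition never reached the appropriate level, the endpoint shown equals the highest concentration tested. Otherwise, values were interpolated linearly from a five-concentration, 48-hour dose response in 96-well plates. At the GI50, growth is halved.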 The source made the active and inactive calls. No stated cut-off is given here; in the data, active = GI50 up to about 1.1 µM and inactive = higher.

On to `Nc1ccccc1OCc1cc(=O)c(OCc2ccccc2)co1`, for which the GI50 in the assay on 786-0 is 23.8 µM (inactive); in the assay on EKVX it was 24.1 µM (inactive); with HCT-15 it was 24.2 µM; in the assay on HOP-62, 33 µM (inactive); in the assay on HOP-92, 0.202 µM (active); in the assay with M14, 17.7 µM (inactive). For the same compound, the GI50 with NCI-H460 was 7.62 µM (inactive); in the assay on NCI/ADR-RES, 10.2 µM (inactive); in the assay on OVCAR-4 it was 62.1 µM (inactive); with SF-268 it was 15.9 µM (inactive); with SF-539 it was 21.6 µM (inactive); in the assay on SK-MEL-28 it was > 100 µM (inactive). The GI50 with SK-OV-3 is 23.6 µM (inactive); with T47D, 24.2 µM (inactive); with TK-10, 18.8 µM (inactive).
Regarding `COC1(C)CNCC(C)(C)NC(=O)C(C)(OC)CNCC(C)(C)NC1=O` (stereo unspecified), the GI50 with 786-0 was > 100 µM (inactive); in the assay with EKVX, > 100 µM (inactive); with HCT-15, more than 100 µM; with HOP-62 it was > 100 µM (inactive); with HOP-92 it was > 100 µM (inactive); in the assay with IGROV-1, > 100 µM (inactive). For the same compound, the GI50 with M14, in the assay with NCI-H226, in the assay on NCI-H460, with OVCAR-4, with RXF 393 and in the assay on SF-268 was > 100 µM (inactive) throughout. The GI50 in the assay with SF-539, with SK-MEL-28, with SK-MEL-2, with SK-OV-3 and with TK-10 was > 100 µM (inactive) throughout.
On to `Cc1ccc(NC(=O)CCc2n[nH]c(=S)o2)cc1`, for which the GI50 is > 100 µM (inactive) with 786-0; > 100 µM (inactive) with EKVX; more than 100 µM in the assay on HCT-15; > 100 µM (inactive) in the assay on HOP-62; > 100 µM (inactive) in the assay with HOP-92; > 100 µM (inactive) in the assay on IGROV-1. The GI50 in the assay on M14, with NCI-H226, in the assay with NCI-H460, in the assay with OVCAR-4, in the assay with RXF 393 and in the assay on SF-268 was > 100 µM (inactive) throughout. Besides, the GI50 in the assay on SF-539, with SK-MEL-28 and with TK-10 was > 100 µM (inactive) in each case.
As to `CC(=O)Nc1ccc(-c2nnc(SCC(=O)Nc3ccccc3C)o2)cc1`, the GI50 in the assay on 786-0 was > 100 µM (inactive); in the assay with HCT-15 it was 80.2 µM; in the assay with HOP-62 it was > 100 µM (inactive); in the assay on HOP-92 it was 39.4 µM (inactive); in the assay on IGROV-1, 67 µM (inactive); with M14 it was 64.9 µM (inactive). In addition, the GI50 in the assay with NCI-H226 was > 100 µM (inactive); with NCI-H460, 96.8 µM (inactive); in the assay on OVCAR-4, > 100 µM (inactive); in the assay with RXF 393, 65.3 µM (inactive); in the assay with SF-268 it was > 100 µM (inactive); with SF-539, > 100 µM (inactive). Besides, the GI50 with SK-MEL-28, in the assay with SK-MEL-2, in the assay with SK-OV-3 and with TK-10 was > 100 µM (inactive) in each case.
Take `CN(C=O)/C=C/c1cc(O)ccc1O`: the GI50 in the assay on 786-0 is 18.5 µM (inactive); in the assay with EKVX, 40.6 µM (inactive); with HCT-15 it was 36.6 µM; with HOP-62, > 43 µM (inactive); with HOP-92, 19.9 µM (inactive); in the assay on IGROV-1, 51.3 µM (inactive). Also, the GI50 is 41.3 µM (inactive) in the assay on M14; 39.7 µM (inactive) in the assay on NCI-H226; > 60.7 µM (inactive) with NCI-H460; 17.6 µM (inactive) in the assay with OVCAR-4; 18 µM (inactive) in the assay on RXF 393; 25.8 µM (inactive) with SF-268. Besides, the GI50 was 38.3 µM (inactive) with SF-539; > 42.1 µM (inactive) in the assay with SK-MEL-28; 35.6 µM (inactive) in the assay on SK-MEL-2; > 86.1 µM (inactive) in the assay with SK-OV-3; 26.8 µM (inactive) with TK-10.
Turning to `COC(=O)[C@H]1C=C[C@@H](C)n2c(=O)c3ccccc3c(=O)n21`, the GI50 in the assay on 786-0 was > 100 µM (inactive); with EKVX it was > 100 µM (inactive); with HCT-15, more than 100 µM; in the assay on HOP-62 it was > 100 µM (inactive); with HOP-92, > 100 µM (inactive); in the assay with IGROV-1, > 100 µM (inactive). In addition, the GI50 in the assay on M14, in the assay on NCI-H226, in the assay on NCI-H460, in the assay on OVCAR-4, in the assay on RXF 393 and in the assay on SF-268 was > 100 µM (inactive) in each case. Moreover, the GI50 in the assay on SF-539, in the assay with SK-MEL-28, with SK-MEL-2, with SK-OV-3 and in the assay with TK-10 was > 100 µM (inactive) each time.
In the case of `CN1CCN(c2n[nH]c(=O)c3c2nnn3Cc2ccccc2)CC1`, the GI50 in the assay on 786-0 is > 100 µM (inactive); with EKVX, > 100 µM (inactive); in the assay on HCT-15, more than 100 µM; with HOP-62, > 100 µM (inactive); in the assay with HOP-92, 17.2 µM (inactive); in the assay with M14, > 100 µM (inactive). The GI50 in the assay with NCI-H460 was > 100 µM (inactive); in the assay with NCI/ADR-RES, > 100 µM (inactive); in the assay with OVCAR-4, > 100 µM (inactive); with RXF 393 it was 86.7 µM (inactive); with SF-268, > 100 µM (inactive); with SK-MEL-28, > 100 µM (inactive). Also, the GI50 with SK-MEL-2 and in the assay with TK-10 was > 100 µM (inactive) each time.
Consider `CC(C)(C)OC(=O)c1cccnc1/C=N/O`, for which the GI50 is 67.6 µM (inactive) with 786-0; > 100 µM (inactive) in the assay on EKVX; 51.9 µM with HCT-15; > 100 µM (inactive) with HOP-62; > 100 µM (inactive) in the assay on HOP-92; > 100 µM (inactive) in the assay on IGROV-1. The GI50 in the assay with M14 was > 100 µM (inactive); with NCI-H226, > 100 µM (inactive); with NCI-H460 it was 48.4 µM (inactive); with OVCAR-4, > 100 µM (inactive); with RXF 393 it was > 100 µM (inactive); with SF-268 it was > 100 µM (inactive). Also, the GI50 in the assay on SF-539, in the assay on SK-MEL-28, with SK-MEL-2, in the assay on SK-OV-3 and in the assay with TK-10 was > 100 µM (inactive) each time.
`O=C(Nc1nc2ccccc2n1Cc1ccccc1)NC12CC3CC(CC(C3)C1)C2`: the GI50 was 24 µM (inactive) with 786-0; > 100 µM (inactive) in the assay on EKVX; more than 100 µM with HCT-15; 32.6 µM (inactive) with HOP-62; 23 µM (inactive) with HOP-92; 75.3 µM (inactive) in the assay on IGROV-1. Also, the GI50 with M14 is 92.5 µM (inactive); with NCI-H226 it was 51.6 µM (inactive); with NCI-H460, 41 µM (inactive); in the assay on OVCAR-4 it was 20.7 µM (inactive); with RXF 393 it was 19.5 µM (inactive); with SF-268, 14.4 µM (inactive). Moreover, the GI50 with SF-539 is 36 µM (inactive); in the assay on SK-MEL-28, 79.3 µM (inactive); in the assay on SK-MEL-2, > 100 µM (inactive); with SK-OV-3, 27.9 µM (inactive); with TK-10, 65.5 µM (inactive).
On to `COC(=O)c1cccc2cccc(C(=O)Nc3ccc(C)cc3C)c12`, for which the GI50 in the assay on 786-0 is > 100 µM (inactive); in the assay with EKVX, > 100 µM (inactive); with HCT-15 it was more than 100 µM; in the assay with HOP-62, > 100 µM (inactive); in the assay with HOP-92, 61.8 µM (inactive); in the assay on IGROV-1 it was > 100 µM (inactive). For the same compound, the GI50 in the assay on M14 was > 100 µM (inactive); with NCI-H226, > 100 µM (inactive); with NCI-H460, > 100 µM (inactive); in the assay with OVCAR-4 it was 93.8 µM (inactive); in the assay on RXF 393, 39.3 µM (inactive); in the assay on SF-268, > 100 µM (inactive). The GI50 is 96.4 µM (inactive) with SF-539; > 100 µM (inactive) with SK-MEL-28; > 100 µM (inactive) in the assay on SK-MEL-2; > 100 µM (inactive) with SK-OV-3; > 100 µM (inactive) in the assay with TK-10.
On to `CC(=O)c1ccc(NC(=O)C(=O)C(C(=O)/C=C/c2ccccc2)C2OC(=O)c3ccccc32)cc1` (stereo unspecified), for which the GI50 in the assay on 786-0 was > 100 µM (inactive); with EKVX, > 100 µM (inactive); in the assay with HCT-15, more than 100 µM; in the assay on HOP-62 it was > 100 µM (inactive); with HOP-92 it was > 100 µM (inactive); in the assay on IGROV-1 it was > 100 µM (inactive). Further, the GI50 with M14, in the assay with NCI-H226, in the assay with NCI-H460, with OVCAR-4, in the assay with RXF 393 and in the assay on SF-268 was > 100 µM (inactive) in each case. In addition, the GI50 in the assay on SF-539, with SK-MEL-28, in the assay on SK-MEL-2, with SK-OV-3 and in the assay on TK-10 was > 100 µM (inactive) each time.
For the compound `O=C(c1ccccc1)N1C2C3CC(OCc4ccccc4)(OCc4ccccc4)C(O3)C21` (stereo unspecified), the GI50 in the assay with 786-0 is > 100 µM (inactive); in the assay on EKVX it was > 100 µM (inactive); in the assay on HCT-15, more than 100 µM; with HOP-62, > 100 µM (inactive); in the assay on HOP-92, > 100 µM (inactive); with IGROV-1, > 100 µM (inactive). Further, the GI50 in the assay on M14, in the assay with NCI-H226, with NCI-H460, with OVCAR-4, in the assay with RXF 393 and in the assay on SF-268 was > 100 µM (inactive) each time. In addition, the GI50 in the assay on SF-539, in the assay on SK-MEL-28, in the assay with SK-MEL-2, with SK-OV-3 and in the assay on TK-10 was > 100 µM (inactive) each time.
